Measured values taken from patent publication US20040044304A1, “Local drug delivery using photosensitizer-mediated and electromagnetic radiation enhanced vascular permeability” (priority 2002, published 2004).
Read-outs that look alike come from different tables or passages of the source.

Test system: vascular structures in the dorsal window chamber
Assay type: in vivo, mice of strain C3H
Details: MRV6401 0.05 mg/kg i.v., red 660 nm-680 nm
Excerpt: Male mice of strain C3H (sourced from The Jackson Laboratory, 600 Main Street, Bar Harbor, Me. 04609, USA) weighing between 28-30 grams were surgically implanted with titanium back-pack window chambers in a similar manner to that described in Example 2. A chamber was considered suitable for subsequent studies if microscopic examination of the preparation met the same criteria as those described in Example 2. The intra-vital microscopic studies were undertaken on unsedated animals held in the same Plexiglass tube assembly as that described in Example 2. The intra-vital microscopy was also performed using the same Leitz Dialux 22 microscope fitted with the same objective lenses, and mercury lamp trans- and epi-illumination sources. However, for the studies described in Example 3, the irradiation source was not a DD4 laser, but rather, activation of the photosensitizers was undertaken using narrow band filtered light from the mercury lamp epi-illumination source. Two different wavelength bands were used to activate the photosensitizers, namely green or red light (see Table 5 below). These wavelengths were obtained by use of filter cubes placed in a Leitz Ploemopak illumination system (NcBain Instruments, Inc., 9601 […] Avenue, Chatsworth, Calif., 91311, USA) fitted to the Leitz Dialux 22 microscope. For activation using green light epi-illumination (530 nm-560 nm) the BP 530-560 band pass excitation filter of the Leitz Ploemopak N2 cube (Cat. No. 513-609, E. Leitz Inc., Rockleigh, N.J., 07647, USA) was used. For activation using red light epi-illumination (660 nm-680 nm) a 670DF20 band pass filter (Cat. No., XF1028, Omega Optical Co., Brattleboro, Vt., 05302, USA) fitted in a Leitz Ploemopak cube was used. In all cases, the activation of the photosensitizer was performed in a defined region that was smaller than the total field of tissue contained within the window chamber. The total mouse dorsal tissue contained within the window chambers was a circle of 1.0 cm diameter, corresponding to a total area of approximately 0.785 cm^2. The illumination field of the activating light was a circle of 0.225 cm diameter, corresponding to a total area of approximately 0.040 cm^2. Thus, approximately 5% of the total area of the chamber was directly illuminated. Mice bearing a dorsal window chamber were placed in the Plexiglass restrainer on the microscope stage for pre-treatment evaluation of the vascular structures. Prior to photosensitizer administration, the architecture of the vascular structures in the entire window chamber in all mice was examined using 410 nm filtered blue light from the mercury trans-illumination source of the intra-vital microscope, and the images which were generated were recorded on video tape for subsequent evaluation. The methods for imaging and recording were as described in Example 2. Briefly, the imaging source was a […] mercury arc lamp (Type 307-143.004 from Ernst Leitz Wetzlar GmBH, Germany) which was powered by an HBO 100 power supply (LEP Ltd., Scarsdale, N.Y.). The output from this source was filtered using a #H43157 interference filter (Edmund Scientific, 101 East Gloucester Pike, Barrington, N.J., 08007-1380), to produce a beam of 410 nm light. Typically, the power density of the imaging light was less than 0.6 […]^2. Two or three fields in each chamber were designated as fields of interest and their location recorded for post-treatment evaluation. These fields were chosen such that they were not adjacent to each other, and one of these fields was chosen so that it was within the region of the chamber that was to receive the activating light illumination. Following identification, recording and designation of the fields of interest, mice were injected with either the photosensitizer […] Medical Technologies, 336 Bollay Drive, Santa Barbara, Calif., 93117) formulated in egg yolk phospholipid ([…] Polar Lipids, Inc., 700 Industrial Park Avenue, Alabaster, Ala., 35007), the photosensitizer […]

[1] = animal #10, 12 J/cm^2, probe 6 min post light irradiation
[2] = animal #13, 8 J/cm^2, probe administered 24 hr post light irradiation

C=Cc1c(C)c2[n]3c1=CC1=NC(=Cc4c(C)c5c([n]4[In]3[Cl])C(=C3N=C(C=2)[C@@H](C)[C@@H]3CCC(=O)OC)CC5=O)C(CC)=C1C [MV6401, indium methyl pyropheophorbide]
TRITC-Dextran in tissue and cells in regions outside the treatment field at 24 hr time point (animal #8, 12 J/cm^2, 155 kD probe 10 min post light irradiation): no significant fluorescence from TRITC-Dextran
Leakage of 155 kD TRITC-Dextran in the treatment field at 24 hr time point (animal #8, 12 J/cm^2, probe 10 min post light irradiation): significant leakage in region 2
Leakage of secondary probe 150 kD FITC-Dextran from vessels in the treatment field, 20 min post probe (animal #8, 12 J/cm^2, probe administered 24 hr post light irradiation): leakage of FITC from vessels in the treated region 2
Leakage of secondary probe 150 kD FITC-Dextran from vessels outside the treatment field, 20 min post probe (animal #8, 12 J/cm^2, probe administered 24 hr post light irradiation, 0.05 mg/kg): some minimal leakage from the vessels in region 1
150 kD FITC-Dextran in tissue and cells surrounding vessels (regions 1 treated and 3) at 24 hr (animal #10, 12 J/cm^2): pattern was apparent at the 2 hr time point, and at the 24 hr time point there was FITC-Dextran present at high levels
Leakage of 150 kD FITC-Dextran from the treated vessels at 1 hr post probe administration [1]: with significant leakage apparent
Leakage of 150 kD FITC-Dextran from vessels outside the treatment field at 1 hr post probe administration [1]: from the treated vessels in region 1, some minor leakage from vessels in region 3 and no leakage from vessels in region
2,000 kD FITC-Dextran leakage in tissue and cells outside the treatment field at 24 hr (animal #11, 12 J/cm^2): FITC-Dextran uptake in tissues and cells in this region. The tissue and cells in regions 2 and 3 showed some minor
Leakage of 2,000 kD FITC-Dextran from vessels outside the treatment field at 1 hr (animal #11, 12 J/cm^2, probe 19 min post light irradiation): no leakage from vessels in regions 2 and 3
Leakage of 2,000 kD FITC-Dextran from vessels outside the treatment field at 1 hr (animal #12, 8 J/cm^2, probe 3 min post light irradiation): no leakage from vessels in regions 2 and 3
Leakage of secondary probe 155 kD TRITC-Dextran from vessels in the treatment field (animal #12, 8 J/cm^2, probe administered 24 hr post light irradiation): significant on-going leakage from vessels in region 1
Leakage of secondary probe 2,000 kD FITC-Dextran from vessels in the treatment field [2]: significant on-going leakage from vessels in region 1
Leakage of secondary probe 2,000 kD FITC-Dextran from vessels outside the treatment field [2]: no evidence of on-going leakage
